Values belong to the compound of their own block, whether it stands above or below them.
Assay: solvent given as SMILES

Structure (SMILES): c1ccc(N2N=C(c3ccc4ccc5cccc6ccc3c4c56)CC2c2ccc3ccc4cccc5ccc2c3c45)cc1 (stereo unspecified)
fluorescence lifetime (in ClCCl): 2.67 ns

Structure (SMILES): O=c1c2cc(S(=O)(=O)Cl)ccc2[nH]c2ccc(S(=O)(=O)Cl)cc12
fluorescence lifetime (in CS(C)=O): 10.8 ns

Structure (SMILES): Cc1ccc2nc3c(=O)[nH]c(=O)[nH]c3nc2c1
fluorescence lifetime (in CC#N): 0.4 ns | fluorescence lifetime (in ClCCCl): 0.32 ns

Structure (SMILES): ClP1(Cl)=N[P@](Cl)(Oc2ccc3ccc4cccc5ccc2c3c45)=N[P@@](Cl)(Oc2ccc3ccc4cccc5ccc2c3c45)=N1
fluorescence lifetime (in ClCCl): 3.02 ns

Structure (SMILES): CN1C(=CC=Cc2nc3nc4ccccc4nc3s2)C(C)(C)c2ccccc21
fluorescence lifetime (in CCCCCCC(C)O): 1.04 ns | fluorescence lifetime (in CCOC(C)=O): 0.92 ns | fluorescence lifetime (in CO): 0.18 ns | fluorescence lifetime (in CS(C)=O): 1.04 ns | fluorescence lifetime (in Cc1ccccc1): 0.11 ns | fluorescence lifetime (in ClC(Cl)Cl): 1.08 ns | fluorescence lifetime (in ClCCl): 0.99 ns

Structure (SMILES): N#Cc1cccc2ccccc12
fluorescence lifetime (in C1CCCCC1): 15.9 ns | fluorescence lifetime (in C1CCOC1): 11 ns | fluorescence lifetime (in CCCCCCC): 17.7 ns | fluorescence lifetime (in CCCCOC(C)=O): 12.9 ns | fluorescence lifetime (in CCCOC(C)=O): 12.8 ns | fluorescence lifetime (in CCOC(C)=O): 11.9 ns | fluorescence lifetime (in CCOCC): 13.7 ns | fluorescence lifetime (in Cc1ccccc1): 12.8 ns

Structure (SMILES): Cc1cc(C)c2c(c1)c1cc(C)cc(C)c1n2-c1ccc2c(c1)Sc1cc3c(cc1B2c1c(C(C)C)cc(C(C)C)cc1C(C)C)B(c1c(C(C)C)cc(C(C)C)cc1C(C)C)c1ccccc1S3
fluorescence lifetime (in Cc1ccccc1): 0.65 ns | fluorescence lifetime (in O=P(c1ccccc1)(c1ccccc1)c1ccc2oc3ccc(P(=O)(c4ccccc4)c4ccccc4)cc3c2c1): 2 ns

Structure (SMILES): Cc1ccc(N(c2ccc(C)cc2)c2ccc3c4cccc5c(N(c6ccc(C)cc6)c6ccc(C)cc6)ccc(c6cccc2c63)c54)cc1
fluorescence lifetime (in ClCCl): 6.25 ns

Structure (SMILES): C(#Cc1ccccc1)C(C#Cc1ccccc1)=Cc1ccc2cc(C=C(C#Cc3ccccc3)C#Cc3ccccc3)ccc2c1
fluorescence lifetime (in ClC(Cl)Cl): 1.1 ns

Structure (SMILES): CC(C)(C)c1ccc(N2c3ccc(C(C)(C)C)cc3B3c4cc(C(C)(C)C)ccc4N(c4ccc(C(C)(C)C)cc4)c4cc(-n5c6ccc(C(C)(C)C)cc6c6cc(C(C)(C)C)ccc65)cc2c43)cc1
fluorescence lifetime (in Cc1ccccc1): 6.02 ns

Structure (SMILES): Cc1ccc(-c2ccc(-c3ccc(C)cc3)c(/C(=C(/c3ccccc3)c3cc(-c4ccc(C)cc4)ccc3-c3ccc(C)cc3)c3ccccc3)c2)cc1
fluorescence lifetime (in C1CCOC1): 8 ns

Structure (SMILES): CCCCCCCCCCCCN1C(=O)c2c(c3ccc4cc(-c5ccc(Cl)cc5)c(OC)cc4c3c3c2ccc2cc(-c4ccc(Cl)cc4)c(OC)cc23)C1=O
fluorescence lifetime (in ClCCl): 6.15 ns

Structure (SMILES): Nc1ccc2c3c(cccc13)C(=O)c1ccccc1-2
fluorescence lifetime (in CC#N): 5.9 ns | fluorescence lifetime (in CC(C)=O): 6.9 ns | fluorescence lifetime (in CC(C)O): 2 ns | fluorescence lifetime (in CCCCOCCCC): 9.2 ns | fluorescence lifetime (in CCOC(C)=O): 7.1 ns | fluorescence lifetime (in CCOCC): 9.5 ns | fluorescence lifetime (in CO): 1.5 ns | fluorescence lifetime (in Cc1ccccc1): 9.2 ns | fluorescence lifetime (in Clc1ccccc1): 8.6 ns | fluorescence lifetime (in N#Cc1ccccc1): 7.5 ns | fluorescence lifetime (in O=C1CCCCC1): 7.8 ns

Structure (SMILES): N#Cc1ccc(N(c2ccc(C#N)cc2)c2ccc3c4cccc5c(N(c6ccc(C#N)cc6)c6ccc(C#N)cc6)ccc(c6cccc2c63)c54)cc1
fluorescence lifetime (in ClCCl): 3.54 ns

Structure (SMILES): CCCCn1c(-c2ccc(-c3nnc(-c4cccs4)o3)cc2)nc(-c2ccccc2)c1-c1ccccc1
fluorescence lifetime (in ClCCl): 1.65 ns

Structure (SMILES): CCC1=C(C)C2=C(C)c3c(C)c(CC)c(C)n3[B-](F)(F)[N+]2=C1C
fluorescence lifetime (in C1CCCCC1): 5.6 ns | fluorescence lifetime (in C1CCOC1): 5.63 ns | fluorescence lifetime (in C1COCCO1): 5.48 ns | fluorescence lifetime (in CC#N): 5.96 ns | fluorescence lifetime (in CC(C)=O): 5.92 ns | fluorescence lifetime (in CC(C)O): 6.04 ns | fluorescence lifetime (in CCC(C)C): 6.28 ns | fluorescence lifetime (in CCCCCC): 5.9 ns | fluorescence lifetime (in CCCCCCCC): 5.84 ns | fluorescence lifetime (in CCCCCCCCCCO): 5.71 ns | fluorescence lifetime (in CCCCCCCCO): 5.9 ns | fluorescence lifetime (in CCCCCCO): 5.78 ns | fluorescence lifetime (in CCCCO): 5.98 ns | fluorescence lifetime (in CCCO): 6.01 ns | fluorescence lifetime (in CCO): 6.09 ns | fluorescence lifetime (in CCOC(C)=O): 5.78 ns | fluorescence lifetime (in CCOCC): 6.21 ns | fluorescence lifetime (in CN1CCCC1=O): 5.56 ns | fluorescence lifetime (in CN(C)C=O): 5.57 ns | fluorescence lifetime (in CO): 6.1 ns | fluorescence lifetime (in Cc1ccccc1): 5.07 ns | fluorescence lifetime (in OCC(F)(F)F): 6.94 ns | fluorescence lifetime (in OCCO): 5.8 ns | fluorescence lifetime (in OCCOc1ccccc1): 5.46 ns | fluorescence lifetime (in c1ccccc1): 5 ns

Results, then the compound that gave them:

fluorescence lifetime (in C1CCCCC1): 4.02 ns | fluorescence lifetime (in CCOC(C)=O): 4.22 ns | fluorescence lifetime (in CO): 4.3 ns
Structure (SMILES): Cc1ccccc1C1=C2C=c3c(oc4ccc(F)cc34)=[N+]2[B-](F)(F)n2c1cc1c3cc(F)ccc3oc12

fluorescence lifetime (in ClCCl): 9.7 ns
Structure (SMILES): COc1ccc(-c2c3cc4cc(C)sc4cc3c(-c3ccc(OC)cc3)c3cc4cc(C)sc4cc23)cc1

fluorescence lifetime (in CC1CCCCC1): 3.2 ns | fluorescence lifetime (in CC#N): 3 ns
Structure (SMILES): C(=C\c1c2ccccc2cc2ccccc12)/c1cnc2ccccc2c1

fluorescence lifetime (in C1CCCCC1): 1 ns | fluorescence lifetime (in ClC(Cl)Cl): 2 ns
Structure (SMILES): CN(C)c1ccc(-c2ccc(-c3nc(C#N)c(C#N)n3C)cc2)cc1

fluorescence lifetime (in ClC(Cl)Cl): 2.3 ns
Structure (SMILES): COc1ccc(C2=Cc3ccc4ccccc4[n+]3[B-](F)(F)O2)cc1

fluorescence lifetime (in ClC(Cl)Cl): 1.58 ns
Structure (SMILES): Cc1cccc(C2=Cc3ccc4ccccc4[n+]3[B-](F)(F)O2)c1

fluorescence lifetime (in C1CCOC1): 6.9 ns
Structure (SMILES): COc1ccc(C(=Cc2ccc(C#N)cc2)c2ccc(OC)cc2)cc1

— the Deep4Chem optical property database
